Source: patent US9561231B2 (AbbVie Inc., priority 2012, dated 2017)
pEC50, pKi: −log10 of the molar value.

Tests used:
[1] = tested on: breast cancer cell line MX-1; assay: MX-1 cell line proliferation assay (3-day); assay type: cell-based; conditions: Homo sapiens, MX1; MX-1 cells, 72 h incubation, Cell Titer Glo; read-out: Cellular proliferation: EC50
Procedure: The impact of compounds of the Examples on cancer cell proliferation was determined using the breast cancer cell line MX-1 (ATCC) in a 3-day proliferation assay. MX-1 cells were maintained in RPMI supplemented with 10% FBS at 37° C. and an atmosphere of 5% CO2. For compound testing, MX-1 cells were plated in 96-well black bottom plates at a density of 5000 cells/well in 90 μL of culture media and incubated at 37° overnight to allow cell adhesion and spreading. Compound dilution series were prepared in DMSO via a 3-fold serial dilution from 3 mM to 0.1 μM. The DMSO dilution series were then diluted 1:100 in phosphate buffered saline, and 10 μL of the resulted solution were added to the appropriate wells of the MX-1 cell plate. The final compound concentrations in the wells were 3, 1, 0.3, 0.1, 0.03, 0.01, 0.003, 0.001, 0.0003 and 0.0001 μM.
Luminescence readings from the Cell Titer Glo assay were normalized to the DMSO treated cells and analyzed using the GraphPad Prism software with sigmoidal curve fitting to obtain EC50s.

[2] = target: T1, second (BD2: amino acids E352-E168) bromodomain of BRD4 (Homo sapiens, UniProt O60885); assay: TR-FRET bromodomain binding assay, BRD4 BD2; conditions: TR-FRET assay protocol (A-G, compound concentration range); Ki calculated from IC50, probe Kd and probe concentration; read-out: TR-FRET Binding Ki: BRD4 (BDII_E352-M457)
T1 construct: protocol
In short: (§1)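 Displacement of Alexa647-labeled BET-inhibitor probe from His-tagged bromodomain, TR-FRET read-out; buffer 20 mM Na phosphate pH 6.0, 50 mM NaCl, 0.01% Triton X-100. IC50 by 4PL fit; Ki calculated from IC50, probe Kd and probe concentration.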

[3] = target: T2, first (BD1: amino acids K57-E168) bromodomain of BRD4 (Homo sapiens, UniProt O60885); assay: TR-FRET bromodomain binding assay, BRD4 BD1; conditions: TR-FRET assay protocol (A-G, compound concentration range); Ki calculated from IC50, probe Kd and probe concentration; read-out: TR-FRET Binding Ki: BRD4 (BDI_K57-E168)
T2 construct: His-tagged first (BD1: amino acids K57-E168)
In short: as §1

Structure (SMILES) | pEC50 [1] | pKi [2] | pKi [3]
COc1cc(=O)n(C)nc1-c1cc(N)ccc1Oc1ccccc1 [Example 20, 6-(5-amino-2-phenoxyphenyl)-5-methoxy-2-methylpyridazin-3(2H)-one] | 5.15 | 6.28 | 5.57
COc1cc(=O)n(C)nc1-c1cc(NC(C)=O)ccc1Oc1ccccc1 [Example 21, N-[3-(4-methoxy-1-methyl-6-oxo-1,6-dihydropyridazin-3-yl)-4-phenoxyphenyl]acetamide] | 5.87 | 6.99 | 6.83
COc1cc(=O)n(C)nc1-c1cc(N(C)S(C)(=O)=O)ccc1Oc1ccccc1 [Example 23, N-[3-(4-methoxy-1-methyl-6-oxo-1,6-dihydropyridazin-3-yl)-4-phenoxyphenyl]-N-methylmethanesulfonamide] | 5.42 | 6.67 | 6.32
CCCS(=O)(=O)Nc1ccc(Oc2ccccc2)c(-c2nn(C)c(=O)cc2OC)c1 [Example 24, N-[3-(4-methoxy-1-methyl-6-oxo-1,6-dihydropyridazin-3-yl)-4-phenoxyphenyl]propane-1-sulfonamide] | 6.00 | 6.97 | 6.49
COc1cc(=O)n(C)nc1-c1cc(NS(=O)(=O)CC(F)(F)F)ccc1Oc1ccccc1 [Example 25, 2,2,2-trifluoro-N-[3-(4-methoxy-1-methyl-6-oxo-1,6-dihydropyridazin-3-yl)-4-phenoxyphenyl]ethanesulfonamide] | 6.35 | 7.90 | 7.01
COc1cc(=O)n(C)nc1-c1cc(NS(=O)(=O)C2CCCC2)ccc1Oc1ccccc1 [Example 26, N-[3-(4-methoxy-1-methyl-6-oxo-1,6-dihydropyridazin-3-yl)-4-phenoxyphenyl]cyclopentanesulfonamide] | 6.10 | 6.98 | 6.24
COc1cc(=O)n(C)nc1-c1cc(NS(=O)(=O)Cc2ccccc2)ccc1Oc1ccccc1 [Example 27, N-[3-(4-methoxy-1-methyl-6-oxo-1,6-dihydropyridazin-3-yl)-4-phenoxyphenyl]-1-phenylmethanesulfonamide] | 6.14 | 7.10 | 6.53
COc1cc(=O)n(C)nc1-c1cc(NS(=O)(=O)CCC(F)(F)F)ccc1Oc1ccccc1 [Example 28, 3,3,3-trifluoro-N-[3-(4-methoxy-1-methyl-6-oxo-1,6-dihydropyridazin-3-yl)-4-phenoxyphenyl]propane-1-sulfonamide] | 5.12 | 6.64 | 6.15
CCOC(=O)Nc1ccc(Oc2ccccc2)c(-c2nn(C)c(=O)cc2OC)c1 [Example 29, ethyl[3-(4-methoxy-1-methyl-6-oxo-1,6-dihydropyridazin-3-yl)-4-phenoxyphenyl]carbamate] | 5.34 | 6.02 | 5.86
CCNC(=O)Nc1ccc(Oc2ccccc2)c(-c2nn(C)c(=O)cc2OC)c1 [Example 30, 1-ethyl-3-[3-(4-methoxy-1-methyl-6-oxo-1,6-dihydropyridazin-3-yl)-4-phenoxyphenyl]urea] | 4.89 | 5.88 | < 5.62
COc1cc(=O)n(C)nc1-c1ccccc1Oc1ccc(F)cc1 [Example 33, 6-[2-(4-fluorophenoxy)phenyl]-5-methoxy-2-methylpyridazin-3(2H)-one] | 5.39 | 5.64 | 5.52
COc1cc(=O)n(C)nc1-c1ccccc1Oc1ccc(Cl)cc1 [Example 37, 6-[2-(4-chlorophenoxy)phenyl]-5-methoxy-2-methylpyridazin-3(2H)-one] | 5.00 | 5.75 | 5.76
CCOC(=O)C1CCN(c2cc(=O)n(C)nc2-c2ccccc2Oc2ccccc2)C1 (stereo not drawn) [Example 49, ethyl 1-[1-methyl-6-oxo-3-(2-phenoxyphenyl)-1,6-dihydropyridazin-4-yl]pyrrolidine-3-carboxylate] | 5.15 | 6.13 | 5.18
COC(=O)CNc1cc(=O)n(C)nc1-c1ccccc1Oc1ccccc1 [Example 50, methyl N-[1-methyl-6-oxo-3-(2-phenoxyphenyl)-1,6-dihydropyridazin-4-yl]glycinate] | 5.02 | 5.62 | 5.68
Cn1nc(-c2ccccc2Oc2ccccc2)c(-c2ccnc(F)c2)cc1=O [Example 54, 5-(2-fluoropyridin-4-yl)-2-methyl-6-(2-phenoxyphenyl)pyridazin-3(2H)-one] | 5.37 | 6.45 | 5.39
Cn1nc(-c2ccccc2Oc2ccccc2)c(-c2cc[nH]c(=O)c2)cc1=O [Example 55, 2-methyl-5-(2-oxo-1,2-dihydropyridin-4-yl)-6-(2-phenoxyphenyl)pyridazin-3(2H)-one] | 4.86 | 6.11 | 5.16
Cn1ccc(-c2cc(=O)n(C)nc2-c2ccccc2Oc2ccccc2)cc1=O [Example 56, 2-methyl-5-(1-methyl-2-oxo-1,2-dihydropyridin-4-yl)-6-(2-phenoxyphenyl)pyridazin-3(2H)-one] | 4.98 | 6.47 | 5.54
COc1cc(-c2cc(=O)n(C)nc2-c2ccccc2Oc2ccccc2)ccn1 [Example 57, 5-(2-methoxypyridin-4-yl)-2-methyl-6-(2-phenoxyphenyl)pyridazin-3(2H)-one] | 5.73 | 6.60 | 6.22
COc1cc(-c2cc(=O)n(C)nc2-c2cc(NS(C)(=O)=O)ccc2Oc2ccccc2)ccn1 [Example 58, N-{3-[4-(2-methoxypyridin-4-yl)-1-methyl-6-oxo-1,6-dihydropyridazin-3-yl]-4-phenoxyphenyl}methanesulfonamide] | 6.35 | 7.20 | 6.58
CCOC(=O)c1cccc(-c2cc(=O)n(C)nc2-c2ccccc2Oc2ccccc2)c1 [Example 59, ethyl 3-[1-methyl-6-oxo-3-(2-phenoxyphenyl)-1,6-dihydropyridazin-4-yl]benzoate] | < 4.52 | 5.68 | 5.01
CN1CCN(Cc2cccc(-c3cc(=O)n(C)nc3-c3ccccc3Oc3ccccc3)c2)CC1 [Example 60, 2-methyl-5-{3-[(4-methylpiperazin-1-yl)methyl]phenyl}-6-(2-phenoxyphenyl)pyridazin-3(2H)-one] | < 5.52 | 6.38 | 6.77
CN1CCN(Cc2ccc(-c3cc(=O)n(C)nc3-c3ccccc3Oc3ccccc3)cc2)CC1 [Example 61, 2-methyl-5-{4-[(4-methylpiperazin-1-yl)methyl]phenyl}-6-(2-phenoxyphenyl)pyridazin-3(2H)-one] | 6.04 | 7.31 | 7.48
CN1CCN(Cc2ccc(-c3cc(=O)n(C)nc3-c3cc(NS(C)(=O)=O)ccc3Oc3ccccc3)cc2)CC1 [Example 62, N-[3-(1-methyl-4-{4-[(4-methylpiperazin-1-yl)methyl]phenyl}-6-oxo-1,6-dihydropyridazin-3-yl)-4-phenoxyphenyl]methanesulfonamide] | 6.55 | 8.29 | 8.13
Cc1ccc(-c2cc(=O)n(C)nc2-c2cc(NS(C)(=O)=O)ccc2Oc2ccccc2)cc1 [Example 63, N-{3-[1-methyl-4-(4-methylphenyl)-6-oxo-1,6-dihydropyridazin-3-yl]-4-phenoxyphenyl}methanesulfonamide] | 6.13 | 7.62 | 7.07
Cn1nc(-c2ccccc2Oc2ccccc2)c(-c2ccc(CN3CCOCC3)cc2)cc1=O [Example 66, 2-methyl-5-[4-(morpholin-4-ylmethyl)phenyl]-6-(2-phenoxyphenyl)pyridazin-3(2H)-one] | 5.61 | 6.80 | 6.85
Cn1nc(-c2ccccc2Oc2ccccc2)c(-c2ccc(CN3CCCCC3)cc2)cc1=O [Example 67, 2-methyl-6-(2-phenoxyphenyl)-5-[4-(piperidin-1-ylmethyl)phenyl]pyridazin-3(2H)-one] | 5.76 | 7.03 | 7.15
CC1CCN(Cc2ccc(-c3cc(=O)n(C)nc3-c3ccccc3Oc3ccccc3)cc2)CC1 [Example 68, 2-methyl-5-{4-[(4-methylpiperidin-1-yl)methyl]phenyl}-6-(2-phenoxyphenyl)pyridazin-3(2H)-one] | 5.95 | 7.14 | 7.20
CCN(CC)Cc1ccc(-c2cc(=O)n(C)nc2-c2ccccc2Oc2ccccc2)cc1 [Example 69, 5-{4-[(diethylamino)methyl]phenyl}-2-methyl-6-(2-phenoxyphenyl)pyridazin-3(2H)-one] | < 5.52 | 6.65 | 7.01
